From patent US20200113852A1, “METHODS OF PATIENT SELECTION AND TREATING TRXR- OR PRDX-OVEREXPRESSED CANCERS” (TRIACT THERAPEUTICS, INC., priority 2017, published 2020)
Where two headings read alike, the source gives them in different places.

What was measured:
recombinant human GAPDH = biological target: T1, recombinant human GAPDH (Homo sapiens, UniProt P04406); experiment: In vitro modification of GAPDH by Iniparib and I-NOBA; type: binding
T1 construct: purchased Acris
Procedure: For biochemical analysis, recombinant human GAPDH (Acris) was first reduced by a 15,000-fold excess of DTT at 56° C. for 30 min, the reducing agent being removed thereafter by chloroform/methanol precipitation. […] Afterwards the samples were submitted or not to another reducing step with 25 mM DTT (56° C., 30 min), and after removal of DTT by chloroform/methanol precipitation, biotinylation of free cysteine sulfhydryl groups of GAPDH was performed with HPDP-biotin (N-[6-(Biotinamido)hexyl]-3′-(2′-pyridyldithio)propionamide) at […] for 2 h at 20° C.
Sample mixtures were then reduced or not with 25 mM DTT (56° C., 30 min). Intact molecular weights were measured by mass spectrometry. Liquid chromatography-electrospray ionization mass spectrometry (LC/MS) was carried out using LTQ-Orbitrap Elite mass spectrometer (Thermo Fisher Scientific) coupled to a Famos Autosampler and an Ultimate Pump (LC-Packing, Dionex). Reverse phase chromatography was performed with a binary buffer system consisting of 0.2% formic acid (buffer A) and 80% acetonitrile in 0.2% formic acid (buffer B). After dilution to 1 pmole/μl in 0.2% formic acid, 1 μl of samples were loaded on a Poros 1 R/H column (75 μm×15 cm, Dionex). […] Mass spectra (m/z 500-2,000) were acquired in the positive ITMS mode with 5 μscans accumulation, a target value of 30,000 and a maximum injection time of 100 ms. The acquired raw files were converted in MassLynx format (Waters) using an home-made program and then were deconvoluted using MaxEnt software (Waters).

Prdx1 = biological target: T2, Prdx1 (Homo sapiens, UniProt Q06830); experiment: Monomeric avidin pull-down and Prdx1 immunoprecipitation, identification of Prdx1 modification; type: cell-based; details: GSH-depleted HCT116, 100 μM, 4 h
T2 construct: endogenous in cells; host or cells: HCT116 (GSH-depleted with BSO)
T2 sequence (Q06830 2-199 limits assumed): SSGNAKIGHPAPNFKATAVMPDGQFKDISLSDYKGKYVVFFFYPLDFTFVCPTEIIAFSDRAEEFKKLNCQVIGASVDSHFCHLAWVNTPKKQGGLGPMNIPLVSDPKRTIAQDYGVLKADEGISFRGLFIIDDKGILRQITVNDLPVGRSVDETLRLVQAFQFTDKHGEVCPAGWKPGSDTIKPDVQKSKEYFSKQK
Procedure: After separation by SDS-PAGE under reducing conditions and PageBlue® protein staining (Thermo scientific), bands of interest were excised, reduced with DTT, alkylated with iodoacetamide and in-gel digested with trypsin (Promega). Peptides were extracted with acetonitrile 50% in 0.2% formic acid and analyzed by Nano LC-MS/MS after partial evaporation in a speed-vac concentrator. LC-MS/MS experiments were performed on an NanoAcquity UPLC (Waters) coupled to a hybrid LTQ Orbitrap Velos mass spectrometer (Thermo Fisher Scientific) equipped with a nanoelectrospray source. Tryptic digests were loaded onto a nanoAcquity UPLC Trap column (Symmetry C18, 5 μm, 180 μm×20 mm, Waters) and washed with 0.2% formic acid at 20 μL/min for 5 min. Peptides were then eluted on a C18 reverse-phase nanoAcquity column (BEH130 C18, 1.7 μm, 75 μm×250 mm, Waters) with a linear gradient of 7-30% solvent B (H2O/CH3CN/HCOOH, 10:90:0.2, by vol.) for 85 min, 30-90% solvent B for 10 min, and 90% solvent B for 5 min, at a flow rate of 250 nL/min.
The mass spectrometer was operated in the data-dependent mode to automatically switch between MS and MS/MS acquisition. […] The exact parent mass is the ^12C isotope ion mass of the most intense isotopic pattern detected on the high resolution Orbitrap MS parallel scan and included in the MS/MS selection window. […]

TrxR in HCT116 cells = biological target: T3, TrxR in HCT116 cells (Homo sapiens, UniProt Q16881); experiment: Endogenous TrxR activity in cell lysates (DTNB reduction assay); type: cell-based
T3 sequence (Q16881 1-649): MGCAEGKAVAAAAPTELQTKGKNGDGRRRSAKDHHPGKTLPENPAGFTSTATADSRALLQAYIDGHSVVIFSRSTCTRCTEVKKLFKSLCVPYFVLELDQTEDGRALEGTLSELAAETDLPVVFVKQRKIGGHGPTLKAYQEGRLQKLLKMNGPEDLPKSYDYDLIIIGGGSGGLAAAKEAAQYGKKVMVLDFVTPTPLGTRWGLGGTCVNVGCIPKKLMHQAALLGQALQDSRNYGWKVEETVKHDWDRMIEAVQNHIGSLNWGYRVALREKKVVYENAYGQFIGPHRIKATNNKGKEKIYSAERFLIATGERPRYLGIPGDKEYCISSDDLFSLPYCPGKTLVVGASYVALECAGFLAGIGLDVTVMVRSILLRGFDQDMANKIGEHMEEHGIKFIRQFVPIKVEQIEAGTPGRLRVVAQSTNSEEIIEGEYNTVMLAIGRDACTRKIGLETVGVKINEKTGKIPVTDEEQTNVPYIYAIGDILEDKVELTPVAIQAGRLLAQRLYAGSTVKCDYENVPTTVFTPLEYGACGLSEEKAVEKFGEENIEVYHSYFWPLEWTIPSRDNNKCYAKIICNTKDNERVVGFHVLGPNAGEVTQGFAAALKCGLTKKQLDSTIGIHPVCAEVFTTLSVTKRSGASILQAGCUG

[1] = HCT-116, read-out: inhibition of TrxR reductase activity, 100 μM, 4 h, BSO-pretreated HCT116
[2] = HCT-116, read-out: inhibition of TrxR reductase activity, 100 μM, first 2 h of incubation, BSO-pretreated HCT116

T1 sequence (P04406 whole entry): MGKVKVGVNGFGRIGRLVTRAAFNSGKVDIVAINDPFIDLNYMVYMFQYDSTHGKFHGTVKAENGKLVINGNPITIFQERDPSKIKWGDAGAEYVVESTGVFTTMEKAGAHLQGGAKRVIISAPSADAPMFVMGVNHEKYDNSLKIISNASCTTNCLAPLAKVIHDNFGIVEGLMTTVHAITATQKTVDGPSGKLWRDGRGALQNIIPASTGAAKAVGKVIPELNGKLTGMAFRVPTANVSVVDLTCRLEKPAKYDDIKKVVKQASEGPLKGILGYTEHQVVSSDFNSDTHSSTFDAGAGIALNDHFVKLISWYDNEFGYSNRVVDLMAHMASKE

SMILES | covalent modification of GAPDH (MS analysis) (recombinant human GAPDH; purified GAPDH incubated with compound) | blocking of free thiol groups in GAPDH (recombinant human GAPDH; purified GAPDH, biotin-HPDP labeling, streptavidin-HRP blot) | Prdx1 modification after in-cell bio activation (Prdx1) | inhibition at 100 µM (TrxR in HCT116 cells; [1]) | inhibition at 100 µM (TrxR in HCT116 cells; [2]) | modification of free thiol groups in purified GAPDH (recombinant human GAPDH)
NC(=O)c1ccc(I)c([N+](=O)[O-])c1 [Iniparib, 4-iodo-3-nitrobenzamide] | not able to covalently modify the protein | ineffective | modifies Cys173 | ~100% | > 90% | –
O=C(CCCC[C@@H]1SC[C@@H]2NC(=O)N[C@@H]21)NCCNC(=O)c1ccc(I)c([N+](=O)[O-])c1 [Iniparib-biotin, 4-iodo-3-nitro-N-(2-(5-((3 aS,4S,6aR)-2-oxohexahydro-1H-thieno[3,4-d]imidazol-4-yl)pentanamido)ethyl)benzamide] | – | – | modifies Cys173 | ~100% | > 90% | did not modify free thiol groups
